Data taken from US20050020544A1, “Bicyclic CB2 cannabinoid receptor ligands” (priority 2002, published 2005).

Tests used:
human CB1 receptor = biological target: T1, human CB1 receptor (Homo sapiens, UniProt P21554); assay: biochemical; assay type: binding; details: displacement of [3H]CP55940, hCB1 HEK-293 membranes; read-out: CB1 IC50
T1 construct: purchased Perkin Elmer/NEN; host or cells: HEK-293 cells, stably transfected (membranes)
Method: (§1) In the present invention, binding affinity is represented by the IC50 value, namely the concentration of a test compound that will displace 50% of a radiolabeled agonist from the CB receptors. […] Preferably these ratios will be obtained for human CB1 and CB2 receptors. The selectivity toward CB2, denoted CB2/CB1 affinity, is calculated as the IC50 value obtained by the test compound for the displacement of the CB1 specific radioligand divided by the IC50 value obtained for the displacement of the CB2 specific radioligand, i.e. the IC50 CB1/IC50 CB2.
The CB1 binding assays were performed by testing the ability of the new compounds to displace [^3H]CP55940 from the CB1 receptor on membranes derived from hCB1 stably transfected HEK-293 cells (Perkin Elmer/NEN). Membranes were diluted in the assay buffer (50 mM Tris-HCl, 2.5 mM EDTA, 5 mM MgCl2, 1 mg/ml BSA, pH=7.4) to 500 μg protein/ml. 50 μl of diluted membranes (25 μg) were incubated with [^3H]CP55940 in the presence or absence of the bicyclic test compounds in a total volume of 0.5 ml. Tested compounds were dissolved in DMSO and diluted in the assay buffer to a final concentration of 0.1% solvent. Control samples were added with identical amount of vehicle. Non-specific binding was measured by the addition of 10 μM of WIN 55212-2. Following 1.5 hours incubation at 30° C. reactions were filtered through Whatman 934A/H filters (presoaked with 0.1% Polyethylenimine (PEI)).
(§2) Binding to CB1 is measured by competitive inhibition of [^3H]CP55940 in HEK-293 cells stably transfected with the human CB1 receptor gene. Binding to CB2 is measured by competitive inhibition of [^3H]WIN55212-2 in CHO cells stably transfected with the human CB2 receptor gene.

[1] = test system: TNF-α secretion from activated RAW 264.7 macrophages; assay: Inhibition of TNF-α in LPS activated macrophages (ELISA); assay type: cell-based, mouse; details: doses up to 20 μM
From the text: (§3) The technique used to quantify the amount of a given protein in a liquid sample, either tissue culture supernatant or body fluid, is based on Enzyme Linked ImmunoSorbent Assay (ELISA) methodology. Either commercially available or established in house, the assay is based on the capture of the protein of interest by specific antibodies bound to the bottom of an ELISA plate well. Unbound material is washed away, the captured protein is then exposed to a secondary antibody generally labeled with horseradish peroxidase (HRP) or alkaline phosphatase (ALP). Again the unbound material is washed away, the samples are then incubated with the appropriate substrate yielding a calorimetric reaction. The reaction is stopped and reading is performed in a spectrophotometer at the appropriate wavelength. Samples are tested at least in duplicate and the appropriate standard curve, consisting of serial dilutions of the recombinant target protein, is incorporated on each plate. Concentration of the protein in the sample is calculated from the standard curve.
(§4) RAW 264.7 macrophages, a mouse cell line (ATCC # TIB-71), were grown in Dulbecco's modified Eagle's medium (DMEM) with 4 mM L-glutamine adjusted to contain 1.5 g/L sodium bicarbonate, 4.5 g/L glucose, and 10% heat inactivated fetal bovine serum. Cells were grown in tissue culture flasks and seeded at appropriate density into 24 wells tissue culture plates. 0.5×10^6 Raw cells in one milliliter were stimulated with 2 μg/ml Lipopolysaccharide E. coli 055:B5 (DIFCO Laboratories). The mouse macrophages were pre-treated for one hour with controls or 10 μM of bicyclic CB2 ligands and later on activated with LPS. Dexamethasone was used as a positive control at 50 nM. Supernatant was collected 4 hours (for PGE2) and 24 hours (for IL-1β and TNF-α) after activation, and the levels of the inflammatory agent under study were determined by ELISA, as previously described. Inhibition was calculated versus vehicle treated cells.
The activation of the macrophages is performed as previously described. The levels of TNF-α are measured in an ELISA assay as previously described. Inhibition is calculated versus vehicle treated cells.

[2] = test system: PGE2 secretion from activated RAW 264.7 macrophages; assay: Inhibition of PGE2 in LPS activated macrophages (ELISA); assay type: cell-based, mouse; details: Mus musculus, RAW264.7; 4 hours after activation, doses 1 μM to 20 μM
From the text: as §3, §4
The activation of the macrophages is performed as previously described. The levels of PGE2 are measured in an ELISA assay as previously described. Inhibition is calculated versus vehicle treated cells. […] Results are depicted in FIG. 2B.

human CB2 receptor [3] = biological target: T2, human CB2 receptor (Homo sapiens, UniProt P34972); assay: biochemical; assay type: binding; design: purchased Perkin Elmer/NEN; host or cells: CHO cells, stably transfected (membranes); details: for CB2/CB1 affinity ratio: IC50 CB1/IC50 CB2; for IC50: displacement of [3H]WIN 55212-2, hCB2 CHO membranes
Method: as §1
The affinities of the novel bicyclic analogs to the CB2 receptor were determined by their ability to displace [^3H]WIN 55212-2 from the receptor in membranes derived from hCB2 stably transfected CHO cells (Perkin Elmer/NEN). Membranes were diluted in assay buffer (10 mM HEPES, 1 mM MgCl2, 1 mM EDTA, 0.3 mg/ml BSA, pH=7.4) to 500 μg protein/ml. 50 μl of diluted membranes (25 μg) were incubated with 0.8 nM of [^3H]WIN 55212-2 in the presence or absence of several concentrations of the bicyclic test compounds in a total volume of 1 ml. Tested compounds were dissolved and diluted as previously described for the hCB1 assay. Non-specific binding was measured by the addition of 10 μM CP 55940. Following 40 minutes incubation at 30° C. reactions were filtered as previously described. Filters for all binding assays were counted in a β-counter and log of analog concentration versus % of binding was plotted. IC50 values were extrapolated from this plot.
as §2

ICR male mice = assay: Tail flick model for acute peripheral pain, i.p.; assay type: in vivo, mouse; details: 10 mg/kg i.p., 330 minutes (five and a half hours)
Method: ICR male mice (20-30 g average body weight, Harlan, Israel) were injected i.p. at the volume dose of 5 ml/kg. Each treatment group contained at least 6 animals. Morphine HCl was used as positive control at the final dose of 5 mg/kg. Its vehicle, saline, was also included as control. The test compounds were dissolved in CREMOPHOR EL®:ethanol and diluted 1:20 in saline prior to injection, this second type of vehicle was also included as negative control. The final dose injected varied from 0.1 to 10 mg/kg. At predetermined time points after treatment injection, the animals were placed in the tail flick system (Socrel, model DS 20). Animals were gently held while their tails were located above the photoelectric cell. The tails were then illuminated (21V) at 2 cm from the distal tip and the latency time, measured in seconds, was recorded in duplicates. At the end of the study, the animals were euthanized by i.p. injection of 100 mg/kg sodium pentobarbitone.
Two parameters were used to analyze the results, the latency time and the % of animals showing analgesia. […] The results in both cases are expressed as mean±SE. The differences between the latency times or the % of animals showing analgesia among various treatment groups was analyzed by analysis of variance (ANOVA) followed by post-hoc Tukey's test (for latency) or Fisher's exact test (for % animals). A value of p<0.05 is considered to be statistically significant.

Male Sprague Dawley rats = assay: Inflammatory pain: carrageenan paw edema in rats, thermal and mechanical stimuli; assay type: in vivo, rat; details: 10 mg/kg i.p., three hours
Method: Male Sprague Dawley rats (200 g average body weight, Harlan, Israel) are transiently sedated by placement on dry ice for the duration of the injections. […] Before induction of inflammatory pain and three hours after injection, the animals reactions to pain stimuli were tested in two systems. The first stimulus was thermal and assessed by the Plantar Test according to Hargreaves, using Ugo Basile Model 7370. The scale was set to an intensity of 50 arbitrary units. The latency time till the animal lift a paw as a reaction to the thermal stimulus was recorded for both the inflamed and non-inflamed hind paws. The second stimulus was mechanical (tactile) and assessed using a Dynamic Plantar Sesthesiomether (Ugo Basile Model 73400-002).
The results are measured as the differences between the two hind paws at time 0 and 3 hours both as ALT, for the latency time in the thermal part of the study, and as ΔForce, for the mechanical part of the study.

human CB2 receptor [4] = biological target: T2, human CB2 receptor; assay: Adenylylcyclase assay: forskolin-activated cAMP in CB2 transfected HEK-293 cells; assay type: cell-based; details: CB2 receptor transfected HEK-293, 1 μM forskolin
Method: Cannabinoids and derivatives bind to G-protein-coupled CB1 and CB2 receptors and exert their activity via the inhibition of adenylylcyclase activity. An adenylylcyclase assay forms a basis for the functional analysis of the compounds by determining their capacity to inhibit or promote forskolin-activated cAMP production. The assay is carried out according to Chin et al. (Chin, C. N. et al., J. Neurochem. 70: 366-73, 1998). Briefly, HEK-293 human kidney cells (ATCC#CRL-1573) stably transfected with either the human CB1 or CB2 receptor (cDNA) were grown in DMEM supplemented with 10% fetal calf serum, 1% Penicillin-Streptomycin and 2 mM L-glutamine. Cells were seeded in 24 wells plate at 5×10^4 cells/well and incubated for 48 hours. Medium was then removed and the adherent cells were washed with PBS. Two hundred μl of serum free medium supplemented with 0.2 mM Ro 20-1724, 0.25% BSA, and 20 mM HEPES was then added to each well. The cells were then activated with 1 μM forskolin in presence of the bicyclic test compounds in concentrations ranging from 10 pM up to 1 μM. The activated cells were then incubated at 37° C. for 20 minutes and the reaction terminated with 1.2 M HCl to a final concentration of 0.1 M. Cells were lyzed by freeze and thaw and the lysate was neutralized with 2 M HEPES, pH 7.5. cAMP was measured in 50 μl aliquots using the [^3H]-cAMP assay system (Amersham).
This experiment was first performed on CB2 receptor transfected cells.

Lewis rats = assay type: in vivo, rat; details: 30 mg/kg i.v., 5 times before the disease onset
Method: Various animal models of autoimmune encephalomyelitis are known in the art, depending on the method of induction, the strain of the animal and the antigen employed to induce the disease. The impact of bicyclic CB2 ligands was tested in EAE using Lewis rats in which the onset of disease is observed by the appearance of clinical symptoms about 10 days after induction. The disease progress and the clinical score increase and peak around day 15 and spontaneous recovery is observed around day 18 after induction of the disease. The animals (at least 9 per test group at initiation of study, except for the untreated control group that comprised only 5 rats) were maintained on a 12 hours light/12 hours dark regimen, at a constant temperature of 22° C., with food and water ad libitum. EAE was induced in these animals by immunization with s.c. injection to the hind paws of 25 μg of purified guinea pig myelin basic protein (MBP, Sigma) emulsified in 0.1 ml of Complete Freund's Adjuvant (Difco).
Methylprednisolone was used as positive control and it was administered daily for 5 consecutive days i.v. at 30 mg/kg starting from day of disease induction by MBP injection. The results are recorded as clinical score; score of 0 indicates a normal animal with no clinical signs, 0.5 indicates a loss of tonicity in the tail's distal part, 1 indicates whole tail paralysis, 2 indicates paraplegia, 3 indicates quadriplegia, 4 indicates complete body paralysis and moribund state and 5 indicates death. The clinical score of the animals is recorded for 11 days following onset of disease and the area under the curve (AUC) is calculated over this period of time.
Moreover, in a separate study animals were euthanized 15 days after induction of the disease by i.p. injection of 100 mg/kg pentobarbital. Brains and spinal cord were removed and were fixed by overnight incubation with 4% Paraformaldehyde. The cervical segment of the spinal cord was dehydrated using ethanol solutions of increasing concentration and then embedded in paraplast. The spinal cord was then sectioned (10 μm) and staining was performed using hematoxylin and eosin. The stained slides were examined under light microscopy for foci of infiltrating lymphocytes. Number of foci were counted and averaged in 6 sections for each animal. Three groups of at least 4 animals each were tested in this system: untreated, vehicle treated, and animals treated with 0.5 mg/kg of compound A. Results are expressed as average±SD of number of foci.

T2 sequence (P34972 whole entry): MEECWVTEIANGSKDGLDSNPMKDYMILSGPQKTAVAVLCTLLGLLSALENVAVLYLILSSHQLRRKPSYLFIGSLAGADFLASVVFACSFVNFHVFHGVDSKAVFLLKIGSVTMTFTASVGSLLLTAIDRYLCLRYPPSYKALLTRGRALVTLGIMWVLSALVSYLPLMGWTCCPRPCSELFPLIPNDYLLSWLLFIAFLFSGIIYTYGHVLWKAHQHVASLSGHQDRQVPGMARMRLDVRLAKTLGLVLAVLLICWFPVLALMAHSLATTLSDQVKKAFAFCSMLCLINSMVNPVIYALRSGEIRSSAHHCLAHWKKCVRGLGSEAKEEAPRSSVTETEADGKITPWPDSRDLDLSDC
T1 sequence (P21554 whole entry): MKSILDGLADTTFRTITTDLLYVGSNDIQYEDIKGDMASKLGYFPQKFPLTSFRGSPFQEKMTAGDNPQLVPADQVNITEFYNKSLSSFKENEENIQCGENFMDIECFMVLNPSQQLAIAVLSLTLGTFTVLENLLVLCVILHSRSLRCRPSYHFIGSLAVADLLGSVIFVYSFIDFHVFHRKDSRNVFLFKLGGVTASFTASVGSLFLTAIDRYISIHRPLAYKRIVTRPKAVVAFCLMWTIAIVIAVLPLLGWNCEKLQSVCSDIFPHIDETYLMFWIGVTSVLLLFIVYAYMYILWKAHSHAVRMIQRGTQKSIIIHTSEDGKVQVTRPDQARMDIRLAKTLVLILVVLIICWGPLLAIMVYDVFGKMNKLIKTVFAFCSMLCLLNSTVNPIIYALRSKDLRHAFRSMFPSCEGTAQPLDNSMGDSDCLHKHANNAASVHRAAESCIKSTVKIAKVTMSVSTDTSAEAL

SMILES | IC50 (human CB1 receptor) | effect on TNF-α secretion [1] | IC50 [2] | CB2/CB1 affinity ratio (human CB2 receptor [3]) | IC50 (human CB2 receptor [3]) | % animals showing increased analgesia (ICR male mice) | latency time (ICR male mice) | ΔForce (tactile stimulus) (Male Sprague Dawley rats) | ΔLT (thermal stimulus) (Male Sprague Dawley rats) | IC50 (human CB2 receptor [4]; read-out: IC50 inhibition of cAMP level) | inhibition at 1 µM (human CB2 receptor [4]; HEK293, read-out: % inhibition at 1 μM) | reduction in the AUC of the clinical score (Lewis rats)
CC(C)(CCCCC#N)c1cc(O)c([C@H]2CC(=O)[C@H]3C[C@@H]2C3(C)C)c(O)c1 [Compound P, (−)-4-[4-(1,1-Dimethyl-pentyl-5-nitrile)-2,6-dihydroxy-phenyl]-6,6-dimethyl-bicyclo[3.1.1]heptan-2-one] | 0.227 µM | none of them did significantly affect TNF-α secretion | 18 µM | 146 | 0.00155 µM | – | – | – | – | – | – | –
CC(C)(CCCCBr)c1cc(O)c(C2CC(=O)C3CC2C3(C)C)c(O)c1 (single isomer, unassigned; (-)) [Compound N, (−)-4-[4-(5-Bromo-1,1-Dimethyl-pentyl)-2,6-dihydroxy-phenyl]-6,6-dimethyl-bicyclo[3.1.1]heptan-2-one] | 0.05 µM | none of them did significantly affect TNF-α secretion | 7 µM | 139 | 0.00036 µM | about 60% | 5.4 s | 6 g | 2 s | – | – | –
CCCCCCC(C)(C)c1cc(OC(=O)CCC(=O)O)c([C@H]2CC(=O)[C@H]3C[C@@H]2C3(C)C)c(OC(=O)CCC(=O)O)c1 [Compound S, 4-{4-[1,1-Dimethyl-heptyl]-2,6-bisuccinate-phenyl}-6,6-dimethyl-bicyclo[3.1.1]heptan-2-one] | 0.117 µM | – | – | 77 | 0.00152 µM | – | – | – | – | 0.00016 µM | 58% | –
C[C@H]1C[C@@H]2[C@H]([C@@H](O)C[C@@]3(C)[C@H]2CC[C@]3(O)C(=O)CO)[C@@]2(C)C=CC(=O)C=C12 [Methylprednisolone, reference compound] | – | – | – | – | – | – | – | – | – | – | – | 34%
